Legend:
cocklebur = experiment: Test C pre-/postemergence herbicide test; format: in vivo, Xanthium strumarium
In short: (§1)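 Preemergence: seeds planted and treated with compound in non-phytotoxic solvent with surfactant; postemergence: plants at 2 to 18 cm (1- to 4-leaf stage) sprayed likewise. Kept in greenhouse 12 to 14 days, then visually rated against controls, 0 (no effect) to 100 (complete control).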

goosegrass = experiment: Test C pre-/postemergence herbicide test; format: in vivo, Eleusine indica; details: for Goosegrass plant response rating: 500 g ai/ha
In short: as §1

pigweed = experiment: Test C pre-/postemergence herbicide test; format: in vivo, Amaranthus retroflexus; details: for Pigweed plant response rating: 500 g ai/ha
In short: as §1

bermudagrass = experiment: Test C pre-/postemergence herbicide test; format: in vivo, Cynodon dactylon
In short: as §1

Surinam grass = experiment: Test C pre-/postemergence herbicide test; format: in vivo, Urochloa decumbens; details: for Surinam Grass plant response rating: 500 g ai/ha
In short: as §1

velvetleaf = experiment: Test A pre-/postemergence herbicide test; format: in vivo, Abutilon theophrasti
In short: (§2)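 Sandy loam soil given preemergence directed spray; plants at 2 to 10 cm, one- to two-leaf stage, sprayed to runoff postemergence, compounds in non-phytotoxic solvent with surfactant. Injury rated visually versus untreated controls after about ten greenhouse days, 0 (no effect) to 100 (complete control); dash means not tested.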

morningglory = experiment: Test A pre-/postemergence herbicide test; format: in vivo, Ipomoea spp.
In short: as §2

[1] = system: smallflower umbrella sedge; experiment: Test C flooded paddy test; format: in vivo, Cyperus difformis; details: for Plant response rating, Sedge, Umbrella: visual rating after 12 to 14 days
johnsongrass = experiment: Test C pre-/postemergence herbicide test; format: in vivo, Sorghum halepense; details: for Johnsongrass plant response rating: 500 g ai/ha
In short: as §1

ducksalad = experiment: Test C flooded paddy test; format: in vivo, Heteranthera limosa; details: for Plant response rating, Ducksalad: visual rating after 12 to 14 days
soybean = experiment: Test C pre-/postemergence herbicide test; format: in vivo, Glycine max; details: for Soybean plant response rating: 500 g ai/ha
In short: as §1

[2] = 125 g ai/ha, scale 0-100, preemergence
[3] = 250 g ai/ha, scale 0 to 100 (0 no effect, 100 complete control), visual, 12 to 14 days, preemergence
[4] = Postemergence, 500 g ai/ha, scale 0 to 100
[5] = Postemergence, 125 g ai/ha, scale 0 to 100, 0 no effect, 100 complete control
[6] = Postemergence, 250 g ai/ha, scale 0 to 100, 0 no effect, 100 complete control
[7] = postemergence, 62 g ai/ha, scale 0 to 100
[8] = Preemergence, scale 0 to 100, 0 no effect, 100 complete control
[9] = postemergence, 125 g ai/ha, scale 0 to 100
[10] = Postemergence, 250 g ai/ha, 0 to 100 scale, 0 no effect, 100 complete control
[11] = Postemergence, 1000 g ai/ha, 0 to 100 scale, 0 no effect, 100 complete control
[12] = Preemergence, 1000 g ai/ha, visual rating, 0 to 100 scale (0 no effect, 100 complete control)
[13] = preemergence, 250 g ai/ha, visual injury, 0 to 100 scale (0 no effect, 100 complete control)
[14] = 62 g ai/ha, scale 0 to 100 (0 no effect, 100 complete control)
[15] = 125 g ai/ha, scale of 0 to 100, 0 is no effect, 100 is complete control
[16] = 250 g ai/ha, scale 0 to 100 (0 no effect, 100 complete control)
[17] = 500 g ai/ha, scale 0 to 100 (0 no effect, 100 complete control)

CCNC(=O)c1cccc(NC(=O)c2cc(C(C)(C)C)nn2CC(F)(F)F)c1 [Compound 31]
55: Morningglory plant response rating (morningglory; [12]) | Plant response rating, Sedge, Umbrella [1, 17]
80: Soybean plant response rating (soybean; Postemergence, scale 0 to 100)
60: Cocklebur plant response rating (cocklebur; [4]) | Surinam Grass plant response rating (Surinam grass; [8]) | Plant response rating, Ducksalad (ducksalad; [17])
0: Plant response rating (0 = no effect, 100 = complete control), Cocklebur (cocklebur; 62 g ai/ha, preemergence) | Morningglory plant response rating (morningglory; [13]) | Sedge, Umbrella plant response rating [1, 14] | Plant response rating (0 = no effect, 100 = complete control), Johnsongrass (johnsongrass; 62 g ai/ha, preemergence) | Plant response rating (0 = no effect, 100 = complete control), Soybean (soybean; 62 g ai/ha, preemergence)
5: Morningglory plant response rating (morningglory; [10])
30: Plant response rating (0 = no effect, 100 = complete control), Goosegrass (goosegrass; 62 g ai/ha, preemergence) | Plant response rating, Goosegrass (goosegrass; [2]) | Plant response rating, Goosegrass (goosegrass; [5]) | Plant response rating, Goosegrass (goosegrass; [7]) | Plant response rating, Surinam Grass (Surinam grass; [3]) | Plant response rating, Surinam Grass (Surinam grass; [7]) | Plant response rating, Velvetleaf (velvetleaf; [11]) | Plant response rating, Johnsongrass (johnsongrass; [2]) | Johnsongrass plant response rating (johnsongrass; Postemergence, scale 0 to 100) | Plant response rating, Johnsongrass (johnsongrass; [6]) | Plant response rating, Soybean (soybean; [7])
70: Plant response rating, Johnsongrass (johnsongrass; [3]) | Plant response rating, Soybean (soybean; [6])
20: Plant response rating, Cocklebur (cocklebur; [2]) | Plant response rating (0 = no effect, 100 = complete control), Bermudagrass (bermudagrass; 62 g ai/ha, preemergence) | Plant response rating, Bermudagrass (bermudagrass; [5]) | Bermudagrass plant response rating (bermudagrass; Postemergence, 250 g ai/ha, scale 0 to 100) | Velvetleaf plant response rating (velvetleaf; [10]) | Plant response rating, Morningglory (morningglory; [11]) | Plant response rating, Johnsongrass (johnsongrass; [5]) | Plant response rating, Johnsongrass (johnsongrass; [7]) | Ducksalad plant response rating (ducksalad; [15]) | Soybean plant response rating (soybean; [8])
40: Plant response rating, Cocklebur (cocklebur; [3]) | Plant response rating, Cocklebur (cocklebur; [5]) | Plant response rating, Cocklebur (cocklebur; [6]) | Plant response rating, Cocklebur (cocklebur; [7]) | Plant response rating, Goosegrass (goosegrass; [3]) | Goosegrass plant response rating (goosegrass; Postemergence, scale 0 to 100) | Plant response rating, Goosegrass (goosegrass; [6]) | Bermudagrass plant response rating (bermudagrass; [4]) | Plant response rating, Surinam Grass (Surinam grass; [9]) | Plant response rating, Sedge, Umbrella [1, 16] | Plant response rating, Ducksalad (ducksalad; [16])
35: Velvetleaf plant response rating (velvetleaf; [12]) | Sedge, Umbrella plant response rating [1, 15]
10: Plant response rating, Bermudagrass (bermudagrass; [7]) | Plant response rating (0 = no effect, 100 = complete control), Surinam Grass (Surinam grass; 62 g ai/ha, preemergence) | Velvetleaf plant response rating (velvetleaf; [13]) | Ducksalad plant response rating (ducksalad; [14]) | Plant response rating, Soybean (soybean; [3])
50: Surinam Grass plant response rating (Surinam grass; Postemergence, scale 0 to 100) | Plant response rating, Surinam Grass (Surinam grass; [6]) | Plant response rating, Soybean (soybean; [9])
100: Plant response rating (0 = no effect, 100 = complete control), Pigweed (pigweed; 62 g ai/ha, preemergence) | Plant response rating, Pigweed (pigweed; [3]) | Pigweed plant response rating (pigweed; Postemergence, scale 0 to 100) | Plant response rating, Pigweed (pigweed; [6]) | Pigweed plant response rating (pigweed; [8]) | Plant response rating, Bermudagrass (bermudagrass; [3]) | Bermudagrass plant response rating (bermudagrass; Preemergence, 500 g ai/ha, scale 0 to 100, 0 no effect, 100 complete control)
90: Goosegrass plant response rating (goosegrass; [8]) | Plant response rating, Pigweed (pigweed; [9]) | Plant response rating, Pigweed (pigweed; [7]) | Plant response rating, Bermudagrass (bermudagrass; [2]) | Johnsongrass plant response rating (johnsongrass; [8])

Reference: patent US20060069132A1, “Azolecarboxamide herbicides” (priority 2004, published 2006)
